According to ChEMBL document CHEMBL1201862, “PubChem BioAssay data set” (2004):
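Briefly, cells in 96-well plates were exposed to five compound concentrations for 48 h, and endpoints were estimated by linear interpolation. GI50 = concentration required for 50% inhibition of growth.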 Active and inactive are the calls of the source. No stated cut-off is given here; in the data, active = GI50 up to about 1.1 µM and inactive = higher.

Tests used:
Experiment in all cases: NCI tumour cell line growth inhibition, 48 h
NCI-H226 = system: NCI-H226
MOLT-4 = system: MOLT-4
SW-620 = system: SW-620
HCT-116 = system: HCT-116
COLO 205 = system: COLO 205
CCRF-CEM = system: CCRF-CEM
SNB-75 = system: SNB-75
SK-MEL-5 = system: SK-MEL-5
LOX IMVI = system: LOX IMVI
NCI-H460 = system: NCI-H460
M14 = system: M14
SF-268 = system: SF-268
EKVX = system: EKVX
BT-549 = system: BT-549
MDA-N = system: MDA-N
786-0 = system: 786-0
OVCAR-4 = system: OVCAR-4
SN12C = system: SN12C
OVCAR-5 = system: OVCAR-5
T47D = system: T47D
NCI-H522 = system: NCI-H522
RPMI-8226 = system: RPMI-8226
HOP-92 = system: HOP-92
IGROV-1 = system: IGROV-1
SR = system: SR
UACC-257 = system: UACC-257
NCI/ADR-RES = system: NCI/ADR-RES
U-251 = system: U-251
OVCAR-3 = system: OVCAR-3
PC-3 = system: PC-3
SK-OV-3 = system: SK-OV-3
RXF 393 = system: RXF 393
KM12 = system: KM12
A549 = system: A549
MDA-MB-435 = system: MDA-MB-435
UO-31 = system: UO-31
SNB-19 = system: SNB-19
K562 = system: K562
OVCAR-8 = system: OVCAR-8
Malme-3M = system: Malme-3M
DU-145 = system: DU-145
SK-MEL-28 = system: SK-MEL-28
HOP-62 = system: HOP-62
Hs-578T = system: Hs-578T
TK-10 = system: TK-10
SK-MEL-2 = system: SK-MEL-2
CAKI-1 = system: CAKI-1
SF-295 = system: SF-295
HCT-15 = system: HCT-15
MDA-MB-231 = system: MDA-MB-231
HT-29 = system: HT-29
NCI-H23 = system: NCI-H23
ACHN = system: ACHN
HCC 2998 = system: HCC 2998
SF-539 = system: SF-539
UACC-62 = system: UACC-62
HL-60 = system: HL-60
MCF7 = system: MCF7
A498 = system: A498

With COc1cc(C=O)ccc1Oc1nnnn1-c1ccccc1 the GI50 (NCI-H226) was < 0.01 µM (active), the GI50 (MOLT-4) was 23.1 µM (inactive) and the GI50 (SW-620) was 27.5 µM (inactive). For the same compound, the GI50 (HCT-116) was 29.8 µM (inactive), the GI50 (COLO 205) was > 100 µM (inactive) and the GI50 (CCRF-CEM) was 19.6 µM (inactive). For the same compound, the GI50 (SNB-75) was 34.8 µM (inactive), the GI50 (SK-MEL-5) was 20.1 µM (inactive) and the GI50 (LOX IMVI) was 39.9 µM (inactive). The GI50 (NCI-H460) was > 100 µM (inactive), the GI50 (M14) was 31.8 µM (inactive) and the GI50 (SF-268) was 42.7 µM (inactive). For the same compound, the GI50 (EKVX) was > 100 µM (inactive), the GI50 (BT-549) was 66.2 µM (inactive) and the GI50 (MDA-N) was 37.8 µM (inactive). The GI50 (786-0) was > 100 µM (inactive), the GI50 (OVCAR-4) was 50.9 µM (inactive) and the GI50 (SN12C) was > 100 µM (inactive). For the same compound, the GI50 (OVCAR-5) was > 100 µM (inactive), the GI50 (T47D) was 16.5 µM (inactive) and the GI50 (NCI-H522) was > 100 µM (inactive). The GI50 (RPMI-8226) was 32.8 µM (inactive), the GI50 (HOP-92) was 71.4 µM (inactive) and the GI50 (IGROV-1) was 84.1 µM (inactive). For the same compound, the GI50 (SR) was 18.9 µM (inactive), the GI50 (UACC-257) was > 100 µM (inactive) and the GI50 (NCI/ADR-RES) was 38.5 µM (inactive). For the same compound, the GI50 (U-251) was 85.3 µM (inactive), the GI50 (OVCAR-3) was 45.7 µM (inactive) and the GI50 (PC-3) was 82.4 µM (inactive). For the same compound, the GI50 (SK-OV-3) was > 100 µM (inactive), the GI50 (RXF 393) was > 100 µM (inactive) and the GI50 (KM12) was 55 µM (inactive). For the same compound, the GI50 (A549) was > 100 µM (inactive), the GI50 (MDA-MB-435) was 36.4 µM (inactive) and the GI50 (UO-31) was 94.4 µM (inactive). The GI50 (SNB-19) was 54.8 µM (inactive), the GI50 (K562) was 34.7 µM (inactive) and the GI50 (OVCAR-8) was 66.2 µM (inactive). For the same compound, the GI50 (Malme-3M) was 84.1 µM (inactive), the GI50 (DU-145) was 32.1 µM (inactive) and the GI50 (SK-MEL-28) was 72.4 µM (inactive). The GI50 (HOP-62) was > 100 µM (inactive), the GI50 (Hs-578T) was 48.6 µM (inactive) and the GI50 (TK-10) was > 100 µM (inactive). For the same compound, the GI50 (SK-MEL-2) was > 100 µM (inactive), the GI50 (CAKI-1) was 31.3 µM (inactive) and the GI50 (SF-295) was > 100 µM (inactive). For the same compound, the GI50 (HCT-15) was 62.5 µM, the GI50 (MDA-MB-231) was > 100 µM (inactive) and the GI50 (HT-29) was 86.7 µM (inactive). For the same compound, the GI50 (NCI-H23) was 46 µM (inactive).

For CC1=CC(O)C(C(O)(C(F)(F)F)C(F)(F)F)C(C)(C)C1 (centres undefined), the GI50 (NCI-H226) was > 10 µM (inactive), the GI50 (MOLT-4) was > 10 µM (inactive) and the GI50 (SW-620) was > 10 µM (inactive). For the same compound, the GI50 (HCT-116) was > 10 µM (inactive), the GI50 (COLO 205) was > 10 µM (inactive) and the GI50 (CCRF-CEM) was > 10 µM (inactive). The GI50 (SNB-75) was > 10 µM (inactive), the GI50 (SK-MEL-5) was 0.0371 µM (active) and the GI50 (LOX IMVI) was > 10 µM (inactive). For the same compound, the GI50 (NCI-H460) was > 10 µM (inactive), the GI50 (M14) was < 0.001 µM (active) and the GI50 (SF-268) was > 10 µM (inactive). For the same compound, the GI50 (ACHN) was > 10 µM (inactive), the GI50 (EKVX) was > 10 µM (inactive) and the GI50 (BT-549) was > 10 µM (inactive). For the same compound, the GI50 (MDA-N) was > 10 µM (inactive), the GI50 (786-0) was < 0.001 µM (active) and the GI50 (OVCAR-4) was > 10 µM (inactive). The GI50 (SN12C) was > 10 µM (inactive), the GI50 (OVCAR-5) was > 10 µM (inactive) and the GI50 (T47D) was > 10 µM (inactive). The GI50 (HCC 2998) was > 10 µM (inactive), the GI50 (NCI-H522) was > 10 µM (inactive) and the GI50 (RPMI-8226) was > 10 µM (inactive). For the same compound, the GI50 (HOP-92) was > 10 µM (inactive), the GI50 (IGROV-1) was 0.188 µM (active) and the GI50 (UACC-257) was > 10 µM (inactive). The GI50 (SF-539) was > 10 µM (inactive), the GI50 (NCI/ADR-RES) was > 10 µM (inactive) and the GI50 (U-251) was > 10 µM (inactive). For the same compound, the GI50 (OVCAR-3) was > 10 µM (inactive), the GI50 (PC-3) was > 10 µM (inactive) and the GI50 (SK-OV-3) was > 10 µM (inactive). For the same compound, the GI50 (RXF 393) was > 10 µM (inactive), the GI50 (KM12) was > 10 µM (inactive) and the GI50 (A549) was > 10 µM (inactive). The GI50 (MDA-MB-435) was < 0.001 µM (active), the GI50 (SNB-19) was > 10 µM (inactive) and the GI50 (K562) was > 10 µM (inactive). For the same compound, the GI50 (OVCAR-8) was > 10 µM (inactive), the GI50 (Malme-3M) was > 10 µM (inactive) and the GI50 (DU-145) was > 10 µM (inactive). For the same compound, the GI50 (SK-MEL-28) was > 10 µM (inactive), the GI50 (HOP-62) was > 10 µM (inactive) and the GI50 (UACC-62) was > 10 µM (inactive). For the same compound, the GI50 (HL-60) was > 10 µM (inactive), the GI50 (MCF7) was > 10 µM (inactive) and the GI50 (Hs-578T) was > 10 µM (inactive). For the same compound, the GI50 (TK-10) was > 10 µM (inactive), the GI50 (SK-MEL-2) was > 10 µM (inactive) and the GI50 (CAKI-1) was > 10 µM (inactive). For the same compound, the GI50 (SF-295) was > 10 µM (inactive), the GI50 (HCT-15) was > 10 µM and the GI50 (MDA-MB-231) was > 10 µM (inactive). For the same compound, the GI50 (A498) was 0.0296 µM (active), the GI50 (HT-29) was > 10 µM (inactive) and the GI50 (NCI-H23) was > 10 µM (inactive).
